# PMC6269562, “Design, Synthesis and Biological Evaluation of New Imidazo[2,1-b]Thiazole Derivatives as Selective COX-2 Inhibitors” (Iranian Journal of Pharmaceutical Research : IJPR, 2018)
# pIC50: −log10 of the molar value. Read-outs that look alike come from different tables or passages of the source.
# What was measured:
# COX-2 [1] = conditions: cited from earlier work
# COX-1 = conditions: read-out: IC50 Whole cell COX-1; cited from earlier work
# COX-2 [2] = conditions: read-out: COX-2 IC50; cited from earlier work
# ovine COX-2 = biological target: T1, ovine COX-2 (Ovis aries, UniProt P79208); assay: biochemical; conditions: for pIC50: ovine COX-1/COX-2 assay kit, means of two determinations; for Selectivity index (SI): COX-1 IC50/COX-2 IC50
# T1 construct: purchased Cayman chemical, MI, USA
# T1 sequence (P79208 17-603): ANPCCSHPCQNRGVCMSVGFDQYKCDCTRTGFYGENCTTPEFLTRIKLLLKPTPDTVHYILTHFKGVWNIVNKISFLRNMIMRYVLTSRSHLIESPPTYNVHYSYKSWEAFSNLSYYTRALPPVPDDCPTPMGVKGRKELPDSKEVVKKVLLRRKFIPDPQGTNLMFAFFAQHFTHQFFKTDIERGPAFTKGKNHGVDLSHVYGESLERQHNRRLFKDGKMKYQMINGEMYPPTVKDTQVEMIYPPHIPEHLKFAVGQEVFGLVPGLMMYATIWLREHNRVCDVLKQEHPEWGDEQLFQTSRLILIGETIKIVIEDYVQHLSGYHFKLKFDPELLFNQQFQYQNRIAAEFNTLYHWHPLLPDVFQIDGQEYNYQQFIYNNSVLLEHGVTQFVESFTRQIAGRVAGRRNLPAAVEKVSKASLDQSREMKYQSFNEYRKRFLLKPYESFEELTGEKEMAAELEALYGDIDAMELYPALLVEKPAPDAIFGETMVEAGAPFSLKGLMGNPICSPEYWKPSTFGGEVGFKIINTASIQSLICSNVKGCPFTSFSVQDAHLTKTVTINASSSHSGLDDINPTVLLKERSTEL
# Text: (§1) In-vitro cyclooxygenase (COX) inhibition assay
# (§2) Enzyme chemiluminescent kit (Cayman chemical, MI, USA) was used to evaluate inhibition activities of synthesized compounds based on our previous reported procedure ([34]). The Cayman chemical chemiluminescent COX (ovine) inhibitor screening assay employs the heme-catalyzed hydroperoxidase activity of ovine cyclooxygenases to produce luminescence in the presence of a cyclic naphthalene hydrazide and the substrate arachidonic acid.
# ovine COX-1 = biological target: T2, ovine COX-1 (Ovis aries, UniProt P05979); assay: biochemical; conditions: ovine COX-1/COX-2 assay kit, means of two determinations
# T2 construct: purchased Cayman chemical, MI, USA
# T2 sequence (P05979 25-600): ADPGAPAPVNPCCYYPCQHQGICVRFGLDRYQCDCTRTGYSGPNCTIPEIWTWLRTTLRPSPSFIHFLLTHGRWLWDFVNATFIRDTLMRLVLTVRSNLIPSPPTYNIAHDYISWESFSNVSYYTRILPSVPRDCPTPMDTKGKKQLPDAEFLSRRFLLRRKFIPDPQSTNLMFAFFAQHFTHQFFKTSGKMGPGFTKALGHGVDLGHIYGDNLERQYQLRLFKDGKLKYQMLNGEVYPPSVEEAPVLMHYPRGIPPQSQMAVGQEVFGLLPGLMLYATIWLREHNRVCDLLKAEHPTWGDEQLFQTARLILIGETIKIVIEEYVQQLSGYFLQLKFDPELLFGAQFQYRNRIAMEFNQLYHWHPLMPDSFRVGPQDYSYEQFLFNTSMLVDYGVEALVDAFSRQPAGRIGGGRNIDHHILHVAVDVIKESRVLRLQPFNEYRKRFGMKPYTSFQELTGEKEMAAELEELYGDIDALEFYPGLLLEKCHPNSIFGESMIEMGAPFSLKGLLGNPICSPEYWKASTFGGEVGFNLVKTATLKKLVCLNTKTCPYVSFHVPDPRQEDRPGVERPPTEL
# Text: as §1, §2
Structure (SMILES),pIC50 (ovine COX-2),pIC50 (ovine COX-1),melting point,Selectivity index (SI) (ovine COX-2),other results
"CS(=O)(=O)c1ccc(-c2nc3ccccn3c2CN2CCOCC2)cc1 [2-(4-(methylsulfonyl)phenyl)-3-(morpholinomethyl)H-imidazo[1,2-a]pyridine]",–,–,–,–,SI (COX-2 [1]; COX-2 selectivity index): 217.1; pIC50 (COX-2 [1]; read-out: IC50 (COX-2 inhibition)): 7.15
"Cc1cnc2c(-c3ccc(F)cc3)c(-c3ccc(S(C)(=O)=O)cc3)nn2c1C [3-(4-fluorophenyl)-6,7-dimethyl-2-(4-(methylsulfonyl)phenyl)pyrazolo[1,5-a]pyrimidine]",–,–,–,–,pIC50 (COX-1): < 5.00
COc1ccc2[nH]c(-c3ccc(S(C)(=O)=O)cc3)cc2c1 [5-methoxy-2-(4-(methylsulfonyl)phenyl)-1H-indole],–,–,–,–,pIC50 (COX-2 [2]): 7.10
"CN(C)Cc1c(-c2ccc(S(C)(=O)=O)cc2)nc2sccn12 [Compound 6a, N,N-Dimethyl-1-(6-(4-(methylsulfonyl)phenyl)imidazo[2,1-b]thiazol-5-yl)methanamine]",7.10,< 4.00,123 to 124 °C,–,–
"CCN(CC)Cc1c(-c2ccc(S(C)(=O)=O)cc2)nc2sccn12 [Compound 6b, N-Ethyl-N-((6-(4-(methylsulfonyl)phenyl)imidazo[2,1-b]thiazol-5-yl)methyl)ethanamine]",6.92,4.31,132 to 135 °C,404.1,–
"CCCN(CCC)Cc1c(-c2ccc(S(C)(=O)=O)cc2)nc2sccn12 [Compound 6c, N-((6-(4-(Methylsulfonyl)phenyl)imidazo[2,1-b]thiazol-5-yl)methyl)-N-propylpropan-1-amine]",–,–,165 to 167 °C,–,–
"CS(=O)(=O)c1ccc(-c2nc3sccn3c2CN2CCCC2)cc1 [Compound 6d, 6-(4-(Methylsulfonyl)phenyl)-5-(pyrrolidin-1-ylmethyl)imidazo[2,1-b]thiazole]",7.05,4.92,144 to 146 °C,134.4,–
"CS(=O)(=O)c1ccc(-c2nc3sccn3c2CN2CCCCC2)cc1 [Compound 6e, 6-(4-(Methylsulfonyl)phenyl)-5-(piperidin-1-ylmethyl)imidazo[2,1-b]thiazole]",6.80,4.30,142.6 to 144 °C,313.1,–
"CS(=O)(=O)c1ccc(-c2nc3sccn3c2CN2CCOCC2)cc1 [Compound 6f, 4-((6-(4-(Methylsulfonyl)phenyl)imidazo[2,1-b]thiazol-5-yl)methyl)morpholine]",7.00,4.26,203 to 206 °C,551.0,–
"CS(=O)(=O)c1ccc(-c2nc3sccn3c2CN(CCO)CCO)cc1 [Compound 6g, 2,2′-(((6-(4-(Methylsulfonyl)phenyl)imidazo[2,1-b]thiazol-5-yl)methyl)azanediyl)bis(ethan-1-ol)]",6.96,< 4.00,168.8 to 170 °C,–,–
